From patent US20190307713A1, “COMBINATIONS OF DICLOFENAC AND H2 RECEPTOR ANTAGONISTS FOR THE TREATMENT OF PAIN AND INFLAMMATION” (priority 2016, published 2019)

Assays:
in vivo = conditions: male, Wistar, rat, po
Procedure: Male Wistar rats (240-260 g) were maintained in an air conditioned quarters at a temperature of 22±2° C. and a relative humidity of 50±10%. Food and water were allowed ad libitum. The animals were acclimatized to the facilities for five days, and then fasted with free access to water for 12 h prior to the experiment. All these animals were housed under similar conditions.
Blood (0.2 ml) was taken from the tail vein prior to administration of test substances (0 h) and blood was taken after 0.083, 0.167, 0.25, 0.5, 1, 2, 4, 8 and 12 h respectively.
Blood samples were collected in tubes containing %5 Nat-EDTA and kept on ice until dichloromethane was added and they were centrifuged at 7000×g for 5 min at 4° C. and supernatants were collected for HPLC analysis.

[1] = system: Caco-2 intestinal permeability model; assay: Caco-2 permeability study of diclofenac potassium and famotidine separately and in combination; format: in vitro ADME; conditions: Caco-2, 50 μg/ml diclofenac potassium (20 μg/ml famotidine in combination)
Procedure: The permeability study designed using Caco-2 intestinal permeability model was prepared by using Millipore 96 well insert plate as 10,000 cells/well on Feb. 21, 2017 and placed in an incubator. Tests on integrity, viability and permeability were performed on Mar. 15, 2017. Viability results were obtained by MTT and integrity results were obtained using Lucifer yellow and the plate was determined to be eligible for permeability study. […] Methanol was used as solvent for the samples and the samples were analyzed in LC/MSMS 8040 analyzer using mobile phase, Methanol+bidistillated water+Ammonium formate.

[2] = oral, instant or immediate release formulations; cited from earlier work

Row | Structure (SMILES) | Cmax (in vivo) | Tmax (in vivo) | Permeability percentage of Diclofenac potassium ([1]; 1 hour) | Permeability percentage of Diclofenac potassium ([1]; 1.5 hours) | Permeability percentage of Diclofenac potassium ([1]; 2 hours) | Permeability percentage of Diclofenac potassium ([1]; 4 hours) | Permeability percentage of Diclofenac potassium ([1]; 8 hours) | Tmax (time to the maximum plasma concentration) [2]
1 | O=C(O)Cc1ccccc1Nc1c(Cl)cccc1Cl [Diclofenac potassium, 2-[2-(2,6-dichloroanilino)phenyl]acetic acid] | 1.24 ng/mL | 15 min | 76.93% | 80.76% | 81.80% | 82.22% | 86.32% | –
2 | O=C(O)Cc1ccccc1Nc1c(Cl)cccc1Cl [diclofenac, 2-[2-(2,6-dichloroanilino)phenyl]acetic acid] | – | – | – | – | – | – | – | about 1 hour
